The record followed here is patent US20240148769A1, “PHARMACEUTICAL COMPOSITION FOR PREVENTING OR TREATING CORONAVIRUS DISEASE 19, CONTAINING CARBOCYCLIC NUCLEOSIDE DERIVATIVE” (FUTURE MEDICINE CO., LTD., priority 2021, published 2024).

The test system of one data set is SARS-CoV-2. Briefly: microbe, parasite or virus in culture. The class given is cell-based. Particulars: for inhibition at 10 µM: screening criterion for Positives, 10 μM (FIG. 8), read-out: ability to inhibit infection.
The next data set can be described thus: in vitro. Particulars: African green monkey.
The mark [1] stands for this setting: Severe acute respiratory syndrome coronavirus 2, Vero cells, SARS-CoV-2 MOI 0.0125, 24 hours, derived through the DRC, duplicate, read-out: IC50.
The mark [2] stands for this setting: Severe acute respiratory syndrome coronavirus 2, Vero cells.
[3] abbreviates: Severe acute respiratory syndrome coronavirus 2, Vero, 24 h.

Where two headings read alike, the source gives them in different places. Bounds are passed on as bounds.

Consider `Nc1ncnc2c1ncn2[C@H]1C(O)C(O)[C@@H](CO)[C@H]1F` (stereo partly drawn) [Chemical Formula 1-1], for which the IC50 with SARS-CoV-2 (setting [1]) was determined as 7.43 µM. In addition, in the data set on SARS-CoV-2 (setting [2]), the inhibition at 10 µM was no less than 70%. The compound also returned a CC50 in the data set “in vitro” greater than 50 µM.
On to `Nc1ncnc2c1ncn2[C@H]1C(O)C(O)[C@@H](CO)C1(F)F` (stereo partly drawn) [Chemical Formula 1-2], for which, in the data set on SARS-CoV-2 (setting [1]), the IC50 was found to be 3.08 µM. For the same compound, the inhibition at 10 µM in the data set on SARS-CoV-2 (setting [2]) is no less than 70%. The compound further displayed a CC50 in “in vitro” greater than 50 µM.
For `CNc1nc(-c2cccs2)nc2c1nc(C#Cc1ccccc1)n2[C@@H]1OCC(O)C1O` (stereo partly drawn) [Chemical Formula 2], in that order: 7.22 µM, no less than 70% and greater than 50 µM.
Take `CCN(CC)CCCC(C)Nc1ccnc2cc(Cl)ccc12` (stereo not drawn) [Chloroquine, chloroquine, reference compound]: the IC50 in the data set with SARS-CoV-2 (setting [3]) amounted to 9.71 µM. Besides, in the data set “in vitro”, the CC50 was greater than 150 µM.
For `Cc1cccc(C)c1OCC(=O)N[C@@H](Cc1ccccc1)[C@@H](O)C[C@H](Cc1ccccc1)NC(=O)[C@H](C(C)C)N1CCCNC1=O` [Lopinavir, lopinavir, reference compound], in that order: 20.8 µM and greater than 50 µM.
Taken in the same sequence, the figures for `CCC(CC)COC(=O)[C@H](C)N[P@](=O)(OC[C@H]1O[C@@](C#N)(c2ccc3c(N)ncnn23)[C@H](O)[C@@H]1O)Oc1ccccc1` [Remdesivir, remdesivir, reference compound] were 7.9 µM and greater than 50 µM.
